# Assay results from article PMC9701179, “New tricyclic systems as photosensitizers towards triple negative breast cancer cells” (Archives of Pharmacal Research, 2022).
# Columns and labels:
# [1] = tested on: MDA-MB-231 cells; experiment: Mitochondrial membrane potential (Mito-ID kit); type: cell-based, human; details: MDA-MB-231, UVA 2.0 J/cm^2; CCCP positive control
# Experimental: The ΔΨ was assayed using the Mito-ID® Membrane Potential Kit according to the manufacturer’s instructions (Enzo Life Sciences, Farmingdale, NY, USA) as previously described. Briefly, MDA-MB-231 cells (8 × 10^3 per well) were seeded in 96-well plates; after 24 h, cells were washed with PBS and loaded with Mito-ID Detection Reagent for 30 min at 37 °C in the dark. Afterwards, cells were incubated with increasing concentrations of tested compounds for 90 min and after that exposed to UVA light (2.0 J/cm^2). CCCP (Carbonyl cyanide 3-chlorophenyl-hydrazone) was used as positive control. Fluorescence intensity was estimated using a VICTOR X3 (PerkinElmer, USA) plate reader at 490 (excitation) and 590 nm (emission).
# Induction of ROS production can in turn prompt the collapse of mitochondrial membrane potential as well as loss of mitochondrial integrity and functioning. […] MDA-MB-231 TNBC cells were treated with tested compounds upon UVA irradiation and the percentage of cells with hypopolarized mitochondrial membrane potential was determined fluorometrically by means of the Mito-ID® Membrane Potential Kit.
# Fig. 5 Effects on mitochondrial membrane potential (A) and cell death induction (B) in human breast MDA-MB-231 cancer cells. A Cells were treated with 7h and 8e and stained with TMRM (10 nM). Fluorescence was estimated at 490 nm (excitation) and 590 nm (emission). Data are the means of five independent experiments. Error bars indicate S.D. * P < 0.05. B Cells were treated with concentrations of 7h and 8e equal to IC50 for 24 h and stained with the fluorescent dyes Hoechst 33342 and PI
# [2] = UVA photostability (UV-Vis spectra in PBS); type: physicochemical; details: for Stability under UVA irradiation (UV-Vis spectra): 2.2 × 10^−5 M, increasing UVA doses 0–20 J/cm^2; for Photodegradation at the light dose of the cytotoxic experiments: UVA 2 J/cm^2, decrease of absorbance of main UV-Vis peaks (data not shown)
# Experimental: Samples containing each compound (2.2 × 10^− 5 M) dissolved in PBS (0.04 M) were irradiated with increasing UVA doses from 0 to 20 J/cm^2 ([…], 5, 10, 15 and 20 J/cm^2), and their absorption spectrum was measured, with a Cary 50 Scan UV–Visible Spectrophotometer.
# The most significant 7h and 8e pyridone derivatives were tested for their stability under UVA irradiation. […] Moreover, isosbestic points were visible, indicating the formation of one or more new stable species in equilibrium with the intact dark compound.
# Fig. 6 UV–Vis Absorption spectra of 7h (left) and 8e (right) in PBS irradiated under 0, 2, 5, 10, 15 and 20 J/cm^2 with UVA light. 0 J/cm^2, red spectrum; 20 J/cm^2, light green spectrum
# [3] = tested on: MDA-MB-231 cells; experiment: Quantification of thiols (DTNB assay); type: cell-based, human; details: MDA-MB-231, 25 µM; for Intracellular thiols (qualitative): UVA 2.0 J/cm^2
# Experimental: The MDA-MB-231 cells (2 × 10^5) were seeded in a six-well plate in growth medium (4 mL). After 24 h, cells were incubated with tested compounds (25 µM) for 90 min, and after that exposed to UVA light (2.0 J/cm^2). Subsequently, after 24 h, the thiol content was measured as previously described (Rigobello et al. [2009]).
# Fig. 4 Cellular ROS production (A) and total thiol redox state (B). A Effect of UVA activated tested compounds (25 µM) or antimycin (3 µM) on hydrogen peroxide formation in MDA-MB-231 cancer cells. B Sulfhydryl content in MDA-MB-231 cancer cells incubated for 24 h with UVA activated tested compounds. The sulfhydryl group amount was determined by the DTNB assay. Error bars indicate S.D
Stability under UVA irradiation (UV-Vis spectra) [2],SMILES,Cells with depolarized mitochondria (mitochondrial membrane potential) [1],Photodegradation at the light dose of the cytotoxic experiments [2],Intracellular thiols (qualitative) [3],"Decrease of intracellular sulfhydryl content ([3]; UVA 2.0 J/cm^2, after 24 h of exposure)"
very unstable under light,"CCOC(=O)c1ccc2n1CCc1cc(S(=O)(=O)c3ccccc3)c(OC)nc1-2 [Compound 7h, Ethyl 3-(benzenesulfonyl)-2-methoxy-5,6-dihydropyrrolo[1,2-h][1,7]naphthyridine-8-carboxylate]",significant increase of cells with depolarized mitochondria,photodegradation was very weak,significantly decreased,about 45%
very unstable under light,"CCOC(=O)c1ccc2n1CCCc1cc(S(=O)(=O)c3ccccc3)c(OC)nc1-2 [Compound 8e, Ethyl 3-(benzenesulfonyl)-2-methoxy-6,7-dihydro-5H-pyrido[2,3-c]pyrrolo[1,2-a]azepine-9-carboxylate]",significant increase of cells with depolarized mitochondria,photodegradation was very weak,significantly decreased,
